Measurements as given in patent US20020137929A1, “1 - (3-heterocyclylphenyl) isothiourea, -isourea, -guanidine and -amidine herbicidal agents” (Intellectual Property Department, BASF Aktiengesellschaft, priority 1998, published 2002).

Tests used:
SETVI (Foxtail, Green) = test: Postemergence herbicidal evaluation; type: in vivo, Setaria viridis; conditions: postemergence
In short: (§1)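 Each compound, dispersed in an acetone/water mix (50/50) carrying 0.5% TWEEN 20, is nozzle-sprayed at 40 psi on approximately two-week-old seedlings at about 0.0156–0.500 kg/ha. Plants are assessed 4–5 weeks afterward on a 0–9 scale relative to control; duplicate tests are averaged.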

GALAP (Galium) [1] = test: Preemergence herbicidal evaluation; type: in vivo, Galium aparine; conditions: rated 4-5 weeks after treatment
In short: (§2)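 Steps: mix seeds into potting soil; plant atop ~1 inch soil; spray compound in aqueous acetone (~0.0156-0.500 kg/ha equivalent); maintain in greenhouse with watering; rate visually 0-9 versus control at 4-5 weeks.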

CYPSE (Flatsedge) [2] = test: Preemergence weed control under flooded paddy conditions; type: in vivo, Cyperus serotinus; conditions: rated 3-4 weeks after treatment
In short: (§3)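 Seeds or propagules sown in silt loam kept flooded 1.5-3 cm; compounds in 50/50 acetone/water pipetted into flood water at about 0.0313 to 0.500 kg/ha. Greenhouse; visual 0-9 rating versus untreated control 3-4 weeks after treatment.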

[3] = tested on: CHEAL (Lambsquarters, Common); test: Postemergence herbicidal evaluation; type: in vivo, Chenopodium album; conditions: postemergence
In short: as §1

CYPSE (Flatsedge) [4] = test: Postemergence weed control under flooded paddy conditions; type: in vivo, Cyperus serotinus; conditions: postemergence weeds
In short: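 Herbicidal effect is judged by eye on a 0–9 scale versus control, 3–4 weeks after dosing. Dosing is into flood water kept 1.5–3 cm over the soil, at about 0.0313–0.500 kg/ha in aqueous/acetone 50/50 v/v, on 3–5 cm weeds and 1.5–2.5-leaf rice seedlings.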

CYPIR (Rice Flatsedge) = test: Preemergence weed control under flooded paddy conditions; type: in vivo, Cyperus iria; conditions: rated 3-4 weeks after treatment
In short: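 Ratings on a 0-9 visual scale cover stand, vigor, malformation, size, chlorosis and overall appearance relative to a control, taken three to four weeks post-treatment. Application was into flood water over freshly sown silt loam at roughly 0.0313 to 0.500 kg/ha.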

CASOB (Sicklepod) [5] = test: Postemergence herbicidal evaluation; type: in vivo, Cassia obtusifolia; conditions: postemergence
In short: as §1

CASOB (Sicklepod) [6] = test: Preemergence herbicidal evaluation; type: in vivo, Cassia obtusifolia; conditions: rated 4-5 weeks after treatment
In short: as §2

ECHCG (Barnyardgrass) = test: Postemergence herbicidal evaluation; type: in vivo, Echinochloa crus-galli; conditions: postemergence
In short: as §1

[7] = tested on: SAGPY (Arrowhead (Pygmaea)); test: Preemergence weed control under flooded paddy conditions; type: in vivo, Sagittaria pygmaea; conditions: rated 3-4 weeks after treatment
In short: as §3

ZEAMX (Corn, Field) = test: Preemergence herbicidal evaluation; type: in vivo, Zea mays; conditions: rated 4-5 weeks after treatment
In short: as §2

ORYSAT (Rice, Tebonnet) = test: Postemergence herbicidal evaluation; type: in vivo, Oryza sativa, (L.) Tebonnet; conditions: postemergence
In short: as §1

[8] = tested on: GLXMAW (Soybean, Williams); test: Postemergence herbicidal evaluation; type: in vivo, Glycine max, (L.) Merr. cv Williams; conditions: postemergence
In short: as §1

AMBEL (Ragweed, Common) = test: Postemergence herbicidal evaluation; type: in vivo, Ambrosia artemisifolia; conditions: postemergence
In short: as §1

GALAP (Galium) [9] = test: Postemergence herbicidal evaluation; type: in vivo, Galium aparine; conditions: postemergence
In short: as §1

SMILES: CCOC(=O)CN1C(=O)C(=C2CCCC2)SC1=Nc1cc(-n2c(=O)cc(C(F)(F)F)n(C)c2=O)c(F)cc1Cl [Compound 18, Ethyl 2-{{2-chloro-5-[3,6-dihydro-3-methyl-2,6-dioxo-4-(trifluoromethyl)-1(2H)-pyrimidinyl]-4-fluorophenyl}imino}-5-cyclopentylidene-4-oxo-3-thiazolidineacetate]
- SETVI herbicidal rating (SETVI (Foxtail, Green); rate 0.0158 kg/ha): 0.0
- SETVI herbicidal rating (SETVI (Foxtail, Green); rate 0.0315 kg/ha): 1.0
- SETVI herbicidal rating (SETVI (Foxtail, Green); rate 0.0630 kg/ha): 6.0
- GALAP preemergence herbicidal rating (GALAP (Galium) [1]; rate 0.1250 kg/ha): 0.0
- GALAP preemergence herbicidal rating (GALAP (Galium) [1]; rate 0.2500 kg/ha): 9.0
- Herbicidal rating CYPSE (CYPSE (Flatsedge) [2]; 0.1160 kg/ha): 0.0
- Herbicidal rating CYPSE (CYPSE (Flatsedge) [2]; 0.2310 kg/ha): 0.0
- Herbicidal rating CYPSE (CYPSE (Flatsedge) [2]; 0.4630 kg/ha): 4.0
- CHEAL herbicidal rating ([3]; rate 0.0158 kg/ha): 6.0
- CHEAL herbicidal rating ([3]; rate 0.0315 kg/ha): 9.0
- CHEAL herbicidal rating ([3]; rate 0.0630 kg/ha): 9.0
- Herbicidal rating CYPSE (CYPSE (Flatsedge) [4]; rate 0.1160 kg/ha, 3-4 weeks after treatment): 0.0
- Herbicidal rating CYPSE (CYPSE (Flatsedge) [4]; rate 0.2310 kg/ha, 3-4 weeks after treatment): 0.0
- Herbicidal rating CYPSE (CYPSE (Flatsedge) [4]; rate 0.4630 kg/ha, 3-4 weeks after treatment): 4.0
- Herbicidal rating CYPIR (CYPIR (Rice Flatsedge); 0.1160 kg/ha): 0.0
- Herbicidal rating CYPIR (CYPIR (Rice Flatsedge); 0.2310 kg/ha): 0.0
- Herbicidal rating CYPIR (CYPIR (Rice Flatsedge); 0.4630 kg/ha): 0.0
- CASOB herbicidal rating (CASOB (Sicklepod) [5]; rate 0.0158 kg/ha): 0.0
- CASOB herbicidal rating (CASOB (Sicklepod) [5]; rate 0.0315 kg/ha): 1.0
- CASOB herbicidal rating (CASOB (Sicklepod) [5]; rate 0.0630 kg/ha): 1.0
- CASOB preemergence herbicidal rating (CASOB (Sicklepod) [6]; rate 0.1250 kg/ha): 0.0
- CASOB preemergence herbicidal rating (CASOB (Sicklepod) [6]; rate 0.2500 kg/ha): 0.0
- ECHCG herbicidal rating (ECHCG (Barnyardgrass); rate 0.0158 kg/ha): 1.0
- ECHCG herbicidal rating (ECHCG (Barnyardgrass); rate 0.0315 kg/ha): 1.0
- ECHCG herbicidal rating (ECHCG (Barnyardgrass); rate 0.0630 kg/ha): 2.0
- Herbicidal rating SAGPY ([7]; 0.1160 kg/ha): 0.0
- Herbicidal rating SAGPY ([7]; 0.2310 kg/ha): 0.0
- Herbicidal rating SAGPY ([7]; 0.4630 kg/ha): 6.0
- ZEAMX preemergence herbicidal rating (ZEAMX (Corn, Field); rate 0.1250 kg/ha): 0.0
- ZEAMX preemergence herbicidal rating (ZEAMX (Corn, Field); rate 0.2500 kg/ha): 0.0
- ORYSAT herbicidal rating (ORYSAT (Rice, Tebonnet); rate 0.0158 kg/ha): 2.0
- ORYSAT herbicidal rating (ORYSAT (Rice, Tebonnet); rate 0.0315 kg/ha): 1.5
- ORYSAT herbicidal rating (ORYSAT (Rice, Tebonnet); rate 0.0630 kg/ha): 1.5
- GLXMAW herbicidal rating ([8]; rate 0.0158 kg/ha): 3.5
- GLXMAW herbicidal rating ([8]; rate 0.0315 kg/ha): 3.5
- GLXMAW herbicidal rating ([8]; rate 0.0630 kg/ha): 3.5
- AMBEL herbicidal rating (AMBEL (Ragweed, Common); rate 0.0158 kg/ha): 4.0
- AMBEL herbicidal rating (AMBEL (Ragweed, Common); rate 0.0315 kg/ha): 9.0
- AMBEL herbicidal rating (AMBEL (Ragweed, Common); rate 0.0630 kg/ha): 7.0
- GALAP herbicidal rating (GALAP (Galium) [9]; rate 0.0158 kg/ha): 2.0
- GALAP herbicidal rating (GALAP (Galium) [9]; rate 0.0315 kg/ha): 5.0
- GALAP herbicidal rating (GALAP (Galium) [9]; rate 0.0630 kg/ha): 6.0

SMILES: Cn1c(C(F)(F)F)cc(=O)n(-c2cc(N=C3SCC(=O)N3[C@H](Cc3ccccc3)C(=O)O)c(Cl)cc2F)c1=O [Compound 69, α-Benzyl-2-{{2-chloro-5-[3,6-dihydro-3-methyl-2,6-dioxo-4-(trifluoromethyl)-1(2H)-pyrimidinyl]-4-fluorophenyl}imino}-4-oxo-3-thiazolidineacetic acid, D-]
- SETVI herbicidal rating (SETVI (Foxtail, Green); rate 0.0158 kg/ha): 3.0
- SETVI herbicidal rating (SETVI (Foxtail, Green); rate 0.0315 kg/ha): 1.0
- SETVI herbicidal rating (SETVI (Foxtail, Green); rate 0.0630 kg/ha): 1.0
- Preemergence herbicidal rating GALAP (GALAP (Galium) [1]; rate 0.0156 kg/ha): 0.0
- Preemergence herbicidal rating GALAP (GALAP (Galium) [1]; rate 0.0313 kg/ha): 0.0
- Preemergence herbicidal rating GALAP (GALAP (Galium) [1]; rate 0.0625 kg/ha): 0.0
- Preemergence herbicidal rating GALAP (GALAP (Galium) [1]; rate 0.1250 kg/ha): 1.0
- Preemergence herbicidal rating GALAP (GALAP (Galium) [1]; rate 0.2500 kg/ha): 1.0
- CYPSE herbicidal effect rating (CYPSE (Flatsedge) [2]; 0.0313 kg/ha): 3.0
- CYPSE herbicidal effect rating (CYPSE (Flatsedge) [2]; 0.0625 kg/ha): 3.0
- CYPSE herbicidal effect rating (CYPSE (Flatsedge) [2]; 0.1250 kg/ha): 9.0
- CYPSE herbicidal effect rating (CYPSE (Flatsedge) [2]; 0.2500 kg/ha): 9.0
- CHEAL herbicidal rating ([3]; rate 0.0158 kg/ha): 7.0
- CHEAL herbicidal rating ([3]; rate 0.0315 kg/ha): 9.0
- Herbicidal rating CYPSE (CYPSE (Flatsedge) [4]; Rate 0.0313 kg/ha, rated 3 to 4 weeks after treatment): 3.0
- Herbicidal rating CYPSE (CYPSE (Flatsedge) [4]; Rate 0.0625 kg/ha, rated 3 to 4 weeks after treatment): 3.0
- Herbicidal rating CYPSE (CYPSE (Flatsedge) [4]; Rate 0.1250 kg/ha, rated 3 to 4 weeks after treatment): 9.0
- Herbicidal rating CYPSE (CYPSE (Flatsedge) [4]; Rate 0.2500 kg/ha, rated 3 to 4 weeks after treatment): 9.0
- CYPIR herbicidal effect rating (CYPIR (Rice Flatsedge); 0.0313 kg/ha): 3.0
- CYPIR herbicidal effect rating (CYPIR (Rice Flatsedge); 0.0625 kg/ha): 3.0
- CYPIR herbicidal effect rating (CYPIR (Rice Flatsedge); 0.1250 kg/ha): 3.0
- CYPIR herbicidal effect rating (CYPIR (Rice Flatsedge); 0.2500 kg/ha): 3.0
- CASOB herbicidal rating (CASOB (Sicklepod) [5]; rate 0.0158 kg/ha): 1.0
- CASOB herbicidal rating (CASOB (Sicklepod) [5]; rate 0.0315 kg/ha): 2.0
- CASOB herbicidal rating (CASOB (Sicklepod) [5]; rate 0.0630 kg/ha): 2.0
- Preemergence herbicidal rating CASOB (CASOB (Sicklepod) [6]; rate 0.0156 kg/ha): 0.0
- Preemergence herbicidal rating CASOB (CASOB (Sicklepod) [6]; rate 0.0313 kg/ha): 0.0
- Preemergence herbicidal rating CASOB (CASOB (Sicklepod) [6]; rate 0.0625 kg/ha): 0.0
- Preemergence herbicidal rating CASOB (CASOB (Sicklepod) [6]; rate 0.1250 kg/ha): 1.0
- Preemergence herbicidal rating CASOB (CASOB (Sicklepod) [6]; rate 0.2500 kg/ha): 5.0
- ECHCG herbicidal rating (ECHCG (Barnyardgrass); rate 0.0158 kg/ha): 2.0
- ECHCG herbicidal rating (ECHCG (Barnyardgrass); rate 0.0315 kg/ha): 1.0
- ECHCG herbicidal rating (ECHCG (Barnyardgrass); rate 0.0630 kg/ha): 4.0
- SAGPY herbicidal effect rating ([7]; 0.0313 kg/ha): 0.0
- SAGPY herbicidal effect rating ([7]; 0.0625 kg/ha): 0.0
- SAGPY herbicidal effect rating ([7]; 0.1250 kg/ha): 3.0
- SAGPY herbicidal effect rating ([7]; 0.2500 kg/ha): 3.0
- Preemergence herbicidal rating ZEAMX (ZEAMX (Corn, Field); rate 0.0156 kg/ha): 0.0
- Preemergence herbicidal rating ZEAMX (ZEAMX (Corn, Field); rate 0.0313 kg/ha): 0.0
- Preemergence herbicidal rating ZEAMX (ZEAMX (Corn, Field); rate 0.0625 kg/ha): 0.0
- Preemergence herbicidal rating ZEAMX (ZEAMX (Corn, Field); rate 0.1250 kg/ha): 3.0
- Preemergence herbicidal rating ZEAMX (ZEAMX (Corn, Field); rate 0.2500 kg/ha): 3.0
- ORYSAT herbicidal rating (ORYSAT (Rice, Tebonnet); rate 0.0158 kg/ha): 2.5
- ORYSAT herbicidal rating (ORYSAT (Rice, Tebonnet); rate 0.0315 kg/ha): 3.0
- ORYSAT herbicidal rating (ORYSAT (Rice, Tebonnet); rate 0.0630 kg/ha): 4.5
- GLXMAW herbicidal rating ([8]; rate 0.0158 kg/ha): 5.5
- GLXMAW herbicidal rating ([8]; rate 0.0315 kg/ha): 6.0
- GLXMAW herbicidal rating ([8]; rate 0.0630 kg/ha): 6.0
- AMBEL herbicidal rating (AMBEL (Ragweed, Common); rate 0.0158 kg/ha): 9.0
- AMBEL herbicidal rating (AMBEL (Ragweed, Common); rate 0.0315 kg/ha): 9.0
- AMBEL herbicidal rating (AMBEL (Ragweed, Common); rate 0.0630 kg/ha): 9.0
- GALAP herbicidal rating (GALAP (Galium) [9]; rate 0.0158 kg/ha): 0.0
- GALAP herbicidal rating (GALAP (Galium) [9]; rate 0.0315 kg/ha): 1.0
- GALAP herbicidal rating (GALAP (Galium) [9]; rate 0.0630 kg/ha): 5.0
